Marks after values point to notes of the source that are not given here.
Legend:
[1] = test system: regional myocardial ischemia and reperfusion (LAD occlusion); assay: Infarct size in a rat model of regional myocardial ischemia and reperfusion; format: in vivo; details: iv
Procedure: Seventy two male Wistar rats (215-300 g, Charles River, Margate, U.K.) were anaesthetized with thiopentone sodium (Intraval®, 120 mg/kg i.p.; Rhone-Merrieux, Essex, U.K.). The rats were tracheotomised and ventilated with a Harvard ventilator (70 strokes/min, tidal volume: 8-10 ml/kg, inspiratory oxygen concentration: 30%). Body temperature was maintained at 38±1° C. The right carotid artery was cannulated and connected to a pressure transducer (MLT 844, AD Instruments Ltd, Hastings, UK) to monitor mean arterial blood pressure and heart rate, which were continuously recorded on a data acquisition system (Powerlab® Version 4.0.4, AD Instruments, Hastings, UK) installed on a Dell Dimension 4100 personal computer, throughout the experiment. The right jugular vein was cannulated for the administration of test compound and Evans Blue dye (at the end of the experiment). A parasternal thoracotomy was performed, the heart was suspended in a temporary pericardial cradle and a snare occluder was placed around the left anterior descending coronary artery (LAD). After completion of the surgical procedure the animals were allowed to stabilize for 30 min before LAD ligation. The coronary artery was occluded at time 0 by tightening of the occluder. After 25 min of acute myocardial ischemia, the occluder was released to allow reperfusion for 2 h.
The test compounds were administered as a slow intravenous injection (i.v.) 5 min prior to the onset of reperfusion of the ischemic heart. Following the 2 h reperfusion period, the coronary artery was re-occluded and Evans Blue dye (1 ml of 2% w/v) was injected into the left ventricle, via the right jugular vein cannula, to distinguish between perfused and non-perfused (AAR) sections of the heart. The Evans Blue solution stains the perfused myocardium, while the occluded vascular bed remains uncolored. The animals were sacrificed with an overdose of anesthetic and the heart excised. The heart was sectioned into slices of 3-4 mm thick, the right ventricular wall was removed, and the AAR (pink) was separated from the non-ischemic (blue) area. […]

[2] = test system: MCAO rats; assay: Middle cerebral artery occlusion (MCAO) cerebral ischemia lesions in rats; format: in vivo, rat
Excerpt: The same effects of preventing the ischemia-reperfusion damages with aporphine and oxoaporphine compounds also found in the other organs, such as brain. After Compound 16 or Compound 21, which is a compound of Formula B (where R1, R2, R5, R6 are OMe, R3, R4, R7 are H) was administrated to male Sprague Dawley rats, the effects of test compounds on the artery occlusive cerebral ischemia in the rats were monitored. First, permanent brain ischemia was induced by middle cerebral artery occlusion (MCAO) in the rats. At 0, 6, 24, 48, and 54 hours after the formation of middle cerebral artery occlusion (MCAO), Group I (i.e., the control group) animals were given the solvent (100% DMSO) (1 ml/kg, i.p.); Group II (i.e., the control group) animals were given the distilled water (D.W.) (1 ml/kg, i.p.);Group III animals (NCM-121) were given Compound 16 (1.5 mg/kg, i.p.); Group IV animals (NCM-124) were given Compound 21 (1.7 mg/kg, i.p); Group V animals were given MK-801 (0.3 mg/kg, i.p.), an antagonist of the N-methyl-D-aspartic acid (NMDA) receptor. There were ten rats in each group. Four days after the formation of MCAO, all the rats were sacrificed. Brain sections were made and stained with 2% cresol purple. The areas and volumes of cerebral ischemia lesions in each section were recorded.

[3] = test system: ischemia-reperfusion rabbit; assay: Ischemia-reperfusion rabbit mortality; format: in vivo
[4] = Hemodynamic effects (blood pressure, heart rate) in rats; format: in vivo, rat

Structure (SMILES): COc1cc2c(cc1OC)-c1c(OC)c(OC)cc3c1C(C2)N(CCOc1ccccc1OC)CC3 (stereo not drawn) [Compound 16, N-[2-(2-methoxyphenoxyl)]ethylnorglaucine]
- infarct size ([1]; 0.5 mg/kg): 47±4 % of the area at risk
- infarct size ([1]; 1.5 mg/kg): 47±2 % of the area at risk
- Infarcted Volume (X ± SEM mm^3) ([2]; IP 1.5 mg/kg × 6, N=10, four days after MCAO, vehicle 100% DMSO 154.17 ± 16.69): 60.14 ± 24.49* mm^3
- % Decrease in total volume of ischemic lesions ([2]; IP 1.5 mg/kg × 6, vs Group I vehicle (100% DMSO)): 60.99%
- effects in reducing the areas and volumes of cerebral ischemia lesions as compared with MK-801 ([2]; comparison in words): more significant effects
- Died at ischemia period ([3]; 0.25 mg/kg, total 3, control 0 of 10): 0
- Died at reperfusion period ([3]; 0.25 mg/kg, total 3, control 3 of 10): 1
- Mortality (%) ([3]; 0.25 mg/kg, total 3, control 30): 33.3%
- Died at ischemia period ([3]; 2.5 mg/kg, total 6, control 0 of 10): 0
- Died at reperfusion period ([3]; 2.5 mg/kg, total 6, control 3 of 10): 0
- Mortality (%) ([3]; 2.5 mg/kg, total 6, control 30): 0%
- duration of blood pressure decrease [4]: about 45 minutes
- effects on blood pressure ([4]; 0.5 mg/kg to 50 mg/kg, FIG. 5A): no significant effects
- effects on heart rate ([4]; 0.5 mg/kg to 50 mg/kg, FIG. 5B): no significant effects
- time to recovery of heart rates after drug application ([4]; 50 mg/kg): 45 min
- heart rates after drug ([4]; 50 mg/kg, from 361.5±9.3 bpm, p<0.05): 295.4±16.8 bpm
- heart rates, % of baseline values ([4]; 50 mg/kg, p<0.05): 81.5±2.8 % of baseline values
- mean blood pressure after drug ([4]; at 3 minutes after drug administration, from 74.6±5.7 mmHg): 62.9±2.2 mmHg
